Laboratory results reported in patent publication US20170327556A1, “CARTILAGE-BINDING FUSION PROTEINS” (Merrimack Pharmaceuticals, Inc., priority 2013, published 2017).

Columns and labels:
[1] = system: human ankle and knee cartilage explants; assay: In vitro joint disease model, explanted human cartilage: ^35S-sulfate incorporation; type: cell-based; details: for sulfated matrix biosynthesis in the absence of cytokines, 16 day combination with Dexamethasone: FIG. 14E black bars; for ^35S-sulfate incorporation, 16 D treatment: protein 16 days in combination with Anti-Infl-1, cytokines, versus Disease control
Protocol: Human cartilage explants are harvested from the knee and ankle of human cadaver donors within 24 hours postmortem. Joints are aseptically dissected by a pathologist to assess gross cartilage morphology by the modified Collins scale (Kuettner, et al., Cartilage degeneration in different human joints. Osteoarthritis Cartilage. 2005; 13(2):93-103) and only grade 0 or 1 joints are used. Full-thickness knee cartilage surfaces are harvested from the femoral-patellar groove and chondyles using a scalpel. Full thickness ankle cartilage is harvested from the dome of talus, proximal area under dome of talus, head of the talus, tibial malleolus and fibular malleolus using a scalpel. Using a 4 mm diameter disposable biopsy punch, full thickness cartilage cores are punched from the cartilage surfaces keeping the superficial zone intact and used as explants in culture.
Explants are cultured in 96-well plates in 300 μL of low glucose DMEM (1× Gibco 11885-084) with added Penicillin-Streptomycin (1×, Gibco 15140-122), ascorbic acid (20 μg/mL, Sigma A4403), proline (400 μM, Sigma P5607-256), non-essential amino acids (1×, Sigma M7145), and HEPES ([…], Gibco 15630-080). Explants from 2-3 donors (4-6 explants per donor) are used for each treatment condition for a total explant number of 12-18 per condition. Donor ages were: 67 year male ankle, 71 year male ankle, 76 year female ankle, 59 year male knee, 34 year male knee, and 63 year female knee. Medium is changed every 2 days. On day 14, the medium is supplemented with 5 μCi/mL of ^35S-sodium sulfate (Perkin Elmer NEX041H005MC, 5 mCi).
Time points are taken at day 16 as follows. Explant tissue is washed four times for 30 min each (2 hr total) in 1 mM unlabeled sodium sulfate in PBS. Each explant is weighed wet and frozen at −20° C. until digestion. Tissue digestion is performed with Proteinase K (Roche cat #3115879001) and each explant is digested in 1 mL 500 μg/mL Proteinase K in 50 mM Tris-HCL, 1 mM calcium chloride pH=8.0 buffer at 60° C. overnight. Measurement of sGAG content and DNA content is performed using standard assay methods such as those described in Hoemann, 2004, Methods in Molecular Medicine: Cartilage and Osteoarthritis. Totowa, N.J.: Humana Press Inc.; p. 127-52. ^35S-sulfate content of the digested cartilage explants is quantified by mixing 20 μL of digest with 250 μL of scintillation fluid (Perkin Elmer cat #1200-439) and counting with A WALLAC 1450 MICROBETA TRILUX scintillation counter.
Treatments were given at the following concentrations: GF-Fus1 13.3 nM=135 ng/mL; and GF-Fus3 13.3 nM=181 ng/mL; Dexamethasone 100 nM=39.2 ng/mL. Growth factor and steroid treatment conditions included the cytokines TNF-alpha (R&D Systems, Cat#210-TA, 25 ng/mL), IL-6 (R&D Systems, Cat#206-IL, 50 ng/mL), and IL-6R alpha (R&D Systems, Cat#227-SR, 250 ng/mL) which were supplied in each medium change. GF-Fus1 and GF-Fus3 were added to fresh medium for either the first 8 days (8 D) or the entire 16 day culture duration (16 D), whereas Dexamethasone was added for the entire 16 days in all cases. Controls were either no cytokines (Healthy) or with cytokines alone (Disease). The outcomes measured from the cartilage explants at day 16 were ^35S-sulfate incorporation, DNA, and sGAG content, and sGAG released to media for all media changes.

[2] = system: bovine cartilage explants; assay: In vitro joint disease model (IL-1), explanted bovine cartilage: ^35S-sulfate incorporation; type: cell-based; details: 4 and 12 day treatments, IL-1, FIG. 16
collagen type II = biological target: T1, collagen type II (Homo sapiens, UniProt P02458); assay: ELISA binding of fusion proteins to collagen type II coated plates; details: 6x-Histidine-tagged proteins, FIG. 2
T1 construct: purchased Chondrex Products, Redmond, Wash
T1 sequence (P02458 182-1241 limits assumed): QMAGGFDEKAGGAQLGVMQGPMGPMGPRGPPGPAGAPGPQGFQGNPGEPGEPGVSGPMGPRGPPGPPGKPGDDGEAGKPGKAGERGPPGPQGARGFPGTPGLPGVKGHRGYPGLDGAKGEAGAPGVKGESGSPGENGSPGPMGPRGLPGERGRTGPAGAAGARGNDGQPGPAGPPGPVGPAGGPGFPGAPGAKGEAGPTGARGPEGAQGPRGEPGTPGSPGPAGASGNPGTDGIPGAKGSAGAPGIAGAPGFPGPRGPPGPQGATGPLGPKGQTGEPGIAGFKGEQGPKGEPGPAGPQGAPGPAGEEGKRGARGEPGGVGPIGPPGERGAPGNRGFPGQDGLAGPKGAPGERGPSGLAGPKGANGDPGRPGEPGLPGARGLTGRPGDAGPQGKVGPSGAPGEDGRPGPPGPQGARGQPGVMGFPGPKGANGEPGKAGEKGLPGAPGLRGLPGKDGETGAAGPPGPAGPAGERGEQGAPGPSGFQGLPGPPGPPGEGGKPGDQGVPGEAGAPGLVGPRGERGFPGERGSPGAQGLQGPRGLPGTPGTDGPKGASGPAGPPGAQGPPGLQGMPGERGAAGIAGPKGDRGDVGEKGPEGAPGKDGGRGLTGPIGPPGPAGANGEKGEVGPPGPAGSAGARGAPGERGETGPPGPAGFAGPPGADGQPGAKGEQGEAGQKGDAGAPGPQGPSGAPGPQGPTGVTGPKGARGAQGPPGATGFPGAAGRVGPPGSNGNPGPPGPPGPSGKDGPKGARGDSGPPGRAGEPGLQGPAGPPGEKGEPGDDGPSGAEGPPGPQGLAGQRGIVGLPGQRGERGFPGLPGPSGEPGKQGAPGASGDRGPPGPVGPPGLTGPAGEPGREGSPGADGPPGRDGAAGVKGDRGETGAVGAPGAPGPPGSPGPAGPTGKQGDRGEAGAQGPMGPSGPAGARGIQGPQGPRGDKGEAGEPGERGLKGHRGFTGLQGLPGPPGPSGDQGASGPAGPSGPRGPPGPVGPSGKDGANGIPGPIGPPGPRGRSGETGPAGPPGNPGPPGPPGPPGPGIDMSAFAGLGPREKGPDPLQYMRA
Protocol: Specificity of proteins to collagen type II may be determined by measuring the ability of the protein to bind the collagen coated on an ELISA plate. Reacti-Bind® 96 well plates are coated overnight at 4° C. with 100 μl of collagen type II (Chondrex Products, Redmond, Wash.) with 1× supplied buffer. Plates are washed with PBS, 0.05% Tween-20 (PBST) and blocked for 1 hour at room temperature with 100 μl of Protein-Free Blocking Buffer (Pierce, Thermo Scientific). Plates are then washed with PBST and tapped dry. 50 μL, of protein in a dilution series is added to the wells and incubated for 1 hour at room temperature. The protein dilution series starts from 100 μM and includes ten additional three-fold dilutions in PBS and one blank (PBS). After plates are washed in PBS, 50 μL, of anti-human IGF-1 (Abcam) at 1:250 in PBST is added and plates are incubated for 1 hour rotating at room temperature. The plates are then washed with PBST and 100 μL, of 1:1000 anti-Rabbit-HRP (Cell Signaling Technology) in PBST for 1 hour at room temperature. […] The absorbance is measured at 450 nm and the resulting data is analyzed using GraphPad Prism®.
The binding of two anticipated type II collagen binding fusion proteins, GF-Fus5 (6x-Histidine-tagged) and GF-Fus6 (6x-Histidine-tagged) was measured as described above.

| Substance | sulfated matrix biosynthesis in the absence of cytokines, 16 day combination with Dexamethasone ([1]; human knee chondyle cartilage) | ^35S-sulfate incorporation, 16 D treatment ([1]; FIGS. 14A-D) | synthesis of new sulfated cartilage matrix (^35S-sulfate incorporation) ([1]; 13.3 nM, 16 days with cytokines, with and without Dexamethasone, versus Disease) | ^35S-sulfate incorporation, 8 D treatment ([1]; protein first 8 days only, Anti-Infl-1 16 days, cytokines, measured final 48 hours of 16 day culture, FIGS. 14A-D) | sulfated matrix biosynthesis in the absence of cytokines, protein removed for the final 8 days ([1]; with Dexamethasone 16 days, human knee chondyle cartilage, FIG. 14E white bars) | cartilage matrix synthesis compared to GF-Fus3-His [2] | binding to collagen type II (collagen type II) |
| --- | --- | --- | --- | --- | --- | --- | --- |
| GF-Fus1: IGF-1 variant polypeptide Long [R^3]-IGF-1, no fused binding domain; used 6x-Histidine-tagged as control [reference compound] | restores sulfated matrix biosynthesis to a level at or above healthy controls | stimulated | – | – | – | – | – |
| GF-Fus3: C-terminal fusion IGF-1(LR3)-PRELP heparin binding domain | restores sulfated matrix biosynthesis to a level at or above healthy controls | stimulated | upregulates | equivalent or superior potency to the continuously delivered proteins | sustains sulfated matrix biosynthesis at the level equivalent to continuous 16 day treatment | equivalent | – |
| GF-Fus5: IGF-1(LR3) fused to CNA35 CB domain | – | – | – | – | – | – | bound to collagen type II |
| GF-Fus6: IGF-1(LR3) fused to CNA344 CB domain | – | – | – | – | – | – | binding more strongly |
